pIC50: −log10 of the molar value.

The source of these data is article PMC5943947 (Molecules : A Journal of Synthetic Chemistry and Natural …, 2017).

The nature of data set [1]: Body weight in B16 melanoma xenograft model. The class given is in vivo. The note with it: B16 tumor-bearing C57BL/6J mice; for Body Weight End: 90 mg/kg for 14 days, end of treatment; for Body Weight Initial: 90 mg/kg, before treatment. As for the experimental part:
(§1) Male C57BL/6J mice were employed to establish the xenograft tumor model by subcutaneous injection (S.C.) of 6 × 10^6 B16 cells. […] In the end of treatment, the mice were sacrificed and the tumor were peeled off and weighted. The inhibition rate of tumor growth was calculated. All animal protocols were conformed to the Guidelines for the Care and Use of Laboratory Animals approved by the Animal Care and Use Committee of Yantai University.

In the next data set the test system is HCT116 cell line. Nature of the data set: In vitro antiproliferative activity, MTT assay, HCT116. The class given is cell-based. The settings on record: Homo sapiens, HCT-116, 48 h. As for the experimental part:
(§2) HCT116, MCF-7 and B16 cell lines were plated on 96-well plates at a density of 5000 per well and incubated overnight. […] After 48 h, 0.5% MTT (Amresco, Solon, OH, USA) solution was added to each well, and further incubation for 4 h, then cells were centrifuged at 2500 rpm for 15 min and removed from the culture medium. And add 150 μL DMSO to dissolve the formazan. After mixing for 5 min, optical density was detected at 570 nm on a microplate reader (Thermo, Waltham, MA, USA).

The next data set relates to MCF-7 cell line. The experiment in a line: In vitro antiproliferative activity, MTT assay, MCF-7. The settings on record: Homo sapiens, MCF7, 48 h. The class given is cell-based. As for the experimental part:
as §2
(In general: Tetrazolium assays rely on reduction of a dye to a coloured formazan, in cell work by metabolically active cells.)

In another data set the target is VEGFR-2 (Homo sapiens, UniProt P35968). The experiment in a line: VEGFR-2 inhibitory assay (caliper mobility shift assay).
Sequence of VEGFR-2 (P35968 20-1356): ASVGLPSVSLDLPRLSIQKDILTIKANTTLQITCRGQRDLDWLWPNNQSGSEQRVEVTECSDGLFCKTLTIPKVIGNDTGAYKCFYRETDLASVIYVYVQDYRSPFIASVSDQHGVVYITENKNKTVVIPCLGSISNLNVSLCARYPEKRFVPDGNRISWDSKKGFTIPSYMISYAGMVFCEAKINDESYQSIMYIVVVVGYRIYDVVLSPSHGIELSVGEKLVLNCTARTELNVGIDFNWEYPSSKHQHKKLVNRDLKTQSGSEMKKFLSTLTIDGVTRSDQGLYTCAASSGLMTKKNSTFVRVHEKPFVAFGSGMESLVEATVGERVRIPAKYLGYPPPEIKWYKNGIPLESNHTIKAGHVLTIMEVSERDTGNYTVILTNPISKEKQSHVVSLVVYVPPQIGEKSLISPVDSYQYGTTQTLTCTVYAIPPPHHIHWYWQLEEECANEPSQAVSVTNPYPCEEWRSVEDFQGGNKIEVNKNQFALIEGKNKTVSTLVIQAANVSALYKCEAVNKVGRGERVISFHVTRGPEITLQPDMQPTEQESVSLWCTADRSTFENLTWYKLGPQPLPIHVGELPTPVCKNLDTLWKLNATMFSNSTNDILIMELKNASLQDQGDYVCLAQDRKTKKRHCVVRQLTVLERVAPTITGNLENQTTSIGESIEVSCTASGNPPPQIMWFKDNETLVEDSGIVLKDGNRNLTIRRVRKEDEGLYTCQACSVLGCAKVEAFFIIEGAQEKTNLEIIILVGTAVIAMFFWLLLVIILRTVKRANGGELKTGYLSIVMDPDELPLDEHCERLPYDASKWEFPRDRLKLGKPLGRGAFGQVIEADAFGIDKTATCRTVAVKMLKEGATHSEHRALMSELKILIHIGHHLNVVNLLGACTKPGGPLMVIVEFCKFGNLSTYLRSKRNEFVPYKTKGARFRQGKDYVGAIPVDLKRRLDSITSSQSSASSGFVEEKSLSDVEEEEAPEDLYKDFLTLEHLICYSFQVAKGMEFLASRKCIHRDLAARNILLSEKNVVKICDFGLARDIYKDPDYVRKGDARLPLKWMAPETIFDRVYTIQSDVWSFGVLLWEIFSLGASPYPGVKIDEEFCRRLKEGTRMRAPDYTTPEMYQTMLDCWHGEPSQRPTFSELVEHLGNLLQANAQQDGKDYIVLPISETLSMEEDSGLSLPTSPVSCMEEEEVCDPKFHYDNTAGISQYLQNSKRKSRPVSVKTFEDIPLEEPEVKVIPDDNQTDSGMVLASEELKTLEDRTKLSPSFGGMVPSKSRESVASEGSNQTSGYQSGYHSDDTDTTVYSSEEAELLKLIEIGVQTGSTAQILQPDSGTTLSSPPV
A further data set concerns B16 cell line. The experiment in a line: In vitro antiproliferative activity, MTT assay, B16. In kind it is cell-based. The settings on record: Mus musculus, 48 h. As for the experimental part:
as §2

The test system of the next data set is B16 melanoma xenograft. Nature of the data set: In vivo antitumor activity, B16 melanoma xenograft model. The note with it: 90 mg/kg for 14 days (text: orally; table footnote: i.p.), C57BL/6J mice. Here is the method:
as §1

In a further data set the target is EGFR (Homo sapiens, UniProt P00533). The experiment in a line: EGFR inhibitory assay (caliper mobility shift assay).
Sequence of EGFR (P00533 25-1210): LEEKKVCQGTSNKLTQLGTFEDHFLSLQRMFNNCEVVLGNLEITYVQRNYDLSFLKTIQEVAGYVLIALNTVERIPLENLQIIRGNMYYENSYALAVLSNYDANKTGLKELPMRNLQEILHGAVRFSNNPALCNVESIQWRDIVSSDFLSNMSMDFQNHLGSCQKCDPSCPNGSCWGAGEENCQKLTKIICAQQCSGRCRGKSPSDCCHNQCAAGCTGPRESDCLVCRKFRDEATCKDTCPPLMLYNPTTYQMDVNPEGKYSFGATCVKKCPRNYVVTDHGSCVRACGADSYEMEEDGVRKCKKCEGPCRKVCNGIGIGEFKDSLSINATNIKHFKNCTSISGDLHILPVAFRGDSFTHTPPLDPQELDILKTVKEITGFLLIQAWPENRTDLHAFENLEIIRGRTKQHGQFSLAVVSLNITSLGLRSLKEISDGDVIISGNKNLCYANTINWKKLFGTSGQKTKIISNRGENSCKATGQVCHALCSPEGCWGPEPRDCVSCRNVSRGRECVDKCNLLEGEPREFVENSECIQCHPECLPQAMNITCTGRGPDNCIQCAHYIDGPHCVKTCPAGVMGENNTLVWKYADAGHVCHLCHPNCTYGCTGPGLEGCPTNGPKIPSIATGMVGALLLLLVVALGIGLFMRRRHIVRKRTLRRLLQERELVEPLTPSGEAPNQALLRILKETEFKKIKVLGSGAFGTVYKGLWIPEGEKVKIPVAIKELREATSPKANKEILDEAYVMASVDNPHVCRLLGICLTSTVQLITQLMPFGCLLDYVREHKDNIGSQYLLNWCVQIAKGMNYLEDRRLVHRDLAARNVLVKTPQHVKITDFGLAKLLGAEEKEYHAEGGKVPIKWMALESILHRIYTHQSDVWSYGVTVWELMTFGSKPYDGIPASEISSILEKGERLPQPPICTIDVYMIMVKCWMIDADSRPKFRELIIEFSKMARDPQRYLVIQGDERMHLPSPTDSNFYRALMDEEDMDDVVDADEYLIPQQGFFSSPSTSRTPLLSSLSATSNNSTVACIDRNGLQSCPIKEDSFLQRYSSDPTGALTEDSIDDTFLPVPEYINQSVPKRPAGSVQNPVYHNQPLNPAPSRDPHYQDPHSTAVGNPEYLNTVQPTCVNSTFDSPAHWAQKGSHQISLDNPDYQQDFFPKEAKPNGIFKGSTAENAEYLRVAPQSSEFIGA

Description for VEGFR-2: Each of these compounds was dissolved in DMSO at 10 mM, diluted to 50× of the final desired highest inhibitor concentration in reaction by 100% DMSO, and 100 μL of each dilution was added to one well on 96-well storage plate, and diluted by transferring 10 μL to 90 μL of 100% DMSO in the next well. Besides, 100 μL of 100% DMSO was added to two empty wells for no compound control and no enzyme control in the same 96-well plate respectively. The plate was marked as source plate. 10 μL of each compound was transferred from the source plate to a new 96-well plate, which was marked as the intermediate plate. Next, 90 μL of 1× kinase base buffer was added to each well of the intermediate plate, and mixed by shaking vigorously for 10 min. A total of 5 μL of each well from the 96-well intermediate plate was transferred to a 384-well plate in duplicate.
Kinase reaction: kinase in 1× kinase base buffer, FAM-labeled peptide and ATP in the 1× kinase base buffer were added, then 10 μL of 2.5× enzyme solution was added to each well of the 384-well assay plate. After incubating at room temperature for 10 min, 10 μL of 2.5× peptide solution was added to each well of the 384-well assay plate. […] Finally, the kinase reactions were quenched with 25 μL of EDTA and the plates were washed. The dates were collected and converted with the caliper program.

Regarding `COc1cc2ncnc(Oc3cccc(NC(=S)Nc4ccc(Cl)c(C(F)(F)F)c4)c3)c2cc1OC` [Compound 10b, 1-(4-Chloro-3-trifluoromethylphenyl)-3-[3-(6,7-dimethoxyquinazolin-4-yloxy)phenyl]thiourea], in data set [1], the “Body Weight End” value was determined as 19.5 ± 3.0 g. Further, in data set [1], the “Body Weight Initial” value is 18.9 ± 1.8 g. Moreover, the pIC50 with HCT116 cell line was 5.04; in the data set with MCF-7 cell line, 4.75; on VEGFR-2, 7.30; in the data set on B16 cell line, 5.21; on EGFR, 7.70. In addition, the “Inhibition Rate of tumor growth” value in the data set with B16 melanoma xenograft was determined as 49.22%. Moreover, in the data set with B16 melanoma xenograft, the “Tumor Weight” value was determined as 0.65 ± 0.22 g.
`COc1cc2ncnc(Sc3cccc(NC(=S)Nc4ccc(Cl)c(C(F)(F)F)c4)c3)c2cc1OC` [Compound 10m, 1-(4-Chloro-3-trifluoromethylphenyl)-3-[3-(6,7-dimethoxyquinazolin-4-ylsulfanyl)phenyl] thiourea] gave a melting point of 162.2 to 164 °C. Further, in data set [1], the “Body Weight End” value amounted to 20.9 ± 1.6 g and the “Body Weight Initial” value stood at 19.2 ± 2.1 g. Besides, the pIC50 in the data set with HCT116 cell line is 5.09. The molecule also had a pIC50 in the data set on MCF-7 cell line of 4.68. Further, the pIC50 at VEGFR-2 is 7.15. Further, the pIC50 with B16 cell line is 5.10. Moreover, in the data set on B16 melanoma xenograft, the “Inhibition Rate of tumor growth” value is 20.31% and the “Tumor Weight” value stood at 1.02 ± 0.36 g. Besides, the negative logarithm of the IC50 (pIC50) on EGFR is 8.00.
For `COc1cc2ncnc(Sc3cccc(NC(=S)Nc4ccc(Br)c(C(F)(F)F)c4)c3)c2cc1OC` [Compound 10q, 1-(4-Bromo-3-trifluoromethylphenyl)-3-[3-(6,7-dimethoxyquinazolin-4-ylsulfanyl)phenyl] thiourea], the melting point lay in the range of 150.3 to 152 °C. Moreover, in data set [1], the “Body Weight End” value amounted to 20.2 ± 2.7 g and the “Body Weight Initial” value is 19.1 ± 2.7 g. In the data set with HCT116 cell line, the pIC50 was 5.08. This molecule showed a pIC50 in the data set on MCF-7 cell line of 4.81. Besides, the pIC50 on VEGFR-2 was 7.10. The same molecule showed a pIC50 in the data set on B16 cell line of 5.25. In addition, in the data set with B16 melanoma xenograft, the “Inhibition Rate of tumor growth” value was 64.06% and the “Tumor Weight” value was 0.46 ± 0.14 g. Further, the negative-log IC50 (pIC50) on EGFR was 8.00.
On to `CNC(=O)c1cc(Oc2ccc(NC(=O)Nc3ccc(Cl)c(C(F)(F)F)c3)cc2)ccn1` [sorafenib, reference compound], for which the “Body Weight End” value in data set [1] is on record as 21.3 ± 2.4 g. Moreover, the “Body Weight Initial” value in data set [1] was 20.7 ± 2.1 g. Also, the pIC50 in the data set on HCT116 cell line was 4.98; in the data set on MCF-7 cell line it was 4.75; in the data set with B16 cell line, 5.03. In addition, the “Inhibition Rate of tumor growth” value with B16 melanoma xenograft and with B16 melanoma xenograft (listed as Sorafenib) was 31.25% each time. Moreover, in the data set on B16 melanoma xenograft, the “Tumor Weight” value came out at 0.88 ± 0.46 g.

As a reminder, the pIC50 is −log10 of the IC50, conventionally taken in molar units. For orientation: melting point means the temperature of the solid-liquid transition.
